Measurements published in patent US20060270656A1, “Substituted piperazines of azepines, oxazepines and thiazepines” (ELI LILLY AND COMPANY, priority 2003, published 2006).
Counter-ions that a name gives are not always drawn.

Molecule CCc1cc2c(s1)Sc1ccccc1N=C2N1CCN(C)[C@@H](CCOC)C1.Cl.Cl has a melting point of 181 to 187 °C.
In the case of CN1CCN(C2=Nc3ccccc3Sc3ccccc32)C[C@@H]1CCc1ccccc1, the melting point is reported as 44 to 54 °C.
For CN1CCN(C2=Nc3ccccc3Sc3ccccc32)C[C@H]1Cc1ccccc1, the melting point was 46 to 63 °C.
In the case of c1ccc(CC[C@H]2CN(C3=Nc4ccccc4Sc4ccccc43)CCN2)cc1, the melting point is reported as 48 to 59 °C.
Molecule c1ccc(C[C@H]2CN(C3=Nc4ccccc4Sc4ccccc43)CCN2)cc1 has a melting point of 54 to 71 °C.
For CN1CCN(C2=Nc3ccccc3Sc3ccccc32)C[C@@H]1Cc1ccccc1, the melting point was 48 to 64 °C.
Work on CCc1nc2c(s1)Sc1ccccc1N=C2N1CCN(C)[C@@H](CCc2cccc(F)c2)C1.Cl yielded a melting point of 133 to 135 °C.
With COCC[C@H]1CN(C2=Nc3ccccc3Sc3sc(C(C)C)cc32)CCN1C.Cl.Cl the melting point was 143 to 147 °C (dec.).
With CC(=O)c1nc2c(s1)Sc1ccccc1N=C2N1CCN(C)[C@@H](CCc2cccc(F)c2)C1.Cl.Cl the melting point was 130 to 132 °C.
With COCC[C@H]1CN(C2=Nc3ccccc3Sc3scnc32)CCN1C (as salt: hydrochloride) the melting point was 146 to 148 °C.
CCc1nc2c(s1)Sc1ccccc1N=C2N1CCN(C)[C@@H](CCc2ccc(OC)cc2)C1.Cl showed a melting point of 129 to 130 °C.
COCC[C@H]1CN(C2=Nc3ccccc3Sc3sc(C(C)=O)nc32)CCN1C.Cl.Cl showed a melting point of 138 to 140 °C.
For c1ccc(C[C@@H]2CN(C3=Nc4ccccc4Sc4ccccc43)CCN2)cc1, the melting point was 56 to 69 °C.
In the case of COCC[C@H]1CN(C2=Nc3ccccc3Sc3sc(C(C)C)cc32)CCN1.Cl.Cl, the melting point is reported as 149 to 152 °C (dec.).
In the case of COCC[C@H]1CN(C2=Nc3ccccc3Sc3scnc32)CCN1 (as salt: hydrochloride), the melting point is reported as 184 to 186 °C.
